Calls of active or inactive are those of the source.
How the values were obtained:
[1] = target: Cytochrome P450 3A4 (Homo sapiens, UniProt P08684);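 also: CYP3A4 tested as one member of a cytochrome P450 panel screen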
[2] = inhibitors of intracellular T. cruzi replication, confirmation, NIH3T3 host cells, beta-gal luminescence (AID 2044); format: functional, cell-based;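 also: intracellular parasites grown in NIH/3T3 mouse fibroblasts as host cells; luminescent beta-galactosidase reporter signal from transgenic T. cruzi replicating inside host cells; inhibitors lower the luminescence signal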
[3] = cytotoxicity toward NIH3T3 fibroblasts, dose response, counter-screen, cell-based, ATP luminescence, mouse fibroblasts (AID 2010); format: functional;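 also: cells exposed to compound for about 90 hours before reading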
[4] = target: T1, Corticotropin-releasing factor receptor 2/Corticotropin-releasing factor-binding protein (Homo sapiens, UniProt P24387+Q13324); experiment: activators of CRF receptor 2 with binding protein – uHTS hits, confirmation (AID 602473); format: functional; details: read-out: EC50_Mean
T1 sequence (Q13324 whole entry): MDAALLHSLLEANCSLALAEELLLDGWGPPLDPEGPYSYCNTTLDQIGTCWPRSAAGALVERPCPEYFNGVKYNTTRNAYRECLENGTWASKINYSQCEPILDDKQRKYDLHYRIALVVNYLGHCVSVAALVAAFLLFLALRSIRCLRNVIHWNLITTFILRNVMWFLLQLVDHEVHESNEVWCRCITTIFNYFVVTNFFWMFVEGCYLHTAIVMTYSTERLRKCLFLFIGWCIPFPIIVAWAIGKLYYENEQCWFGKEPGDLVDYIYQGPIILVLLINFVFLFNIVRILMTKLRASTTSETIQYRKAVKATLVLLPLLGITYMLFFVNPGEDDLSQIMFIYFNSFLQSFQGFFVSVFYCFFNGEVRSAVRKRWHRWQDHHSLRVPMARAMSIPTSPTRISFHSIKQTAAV
T1 sequence (P24387 whole entry): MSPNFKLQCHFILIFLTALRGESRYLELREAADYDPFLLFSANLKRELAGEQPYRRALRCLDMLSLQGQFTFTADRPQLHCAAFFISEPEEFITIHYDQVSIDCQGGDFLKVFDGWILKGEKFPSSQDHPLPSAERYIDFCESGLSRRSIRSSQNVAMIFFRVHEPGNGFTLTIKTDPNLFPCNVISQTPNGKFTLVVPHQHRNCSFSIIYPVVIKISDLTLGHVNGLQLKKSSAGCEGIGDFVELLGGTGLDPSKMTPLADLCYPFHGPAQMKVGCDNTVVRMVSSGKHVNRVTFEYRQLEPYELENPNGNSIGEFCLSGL

[5] = target: Cytochrome P450 2C19 (Homo sapiens, UniProt P33261); experiment: Cytochrome panel assay with activity outcomes. Panel member name: p450-cyp2c19 Compounds with AC50 equal or less than 10 uM are considered active; format: functional
Chain of Cytochrome P450 2C19 (P33261 whole entry): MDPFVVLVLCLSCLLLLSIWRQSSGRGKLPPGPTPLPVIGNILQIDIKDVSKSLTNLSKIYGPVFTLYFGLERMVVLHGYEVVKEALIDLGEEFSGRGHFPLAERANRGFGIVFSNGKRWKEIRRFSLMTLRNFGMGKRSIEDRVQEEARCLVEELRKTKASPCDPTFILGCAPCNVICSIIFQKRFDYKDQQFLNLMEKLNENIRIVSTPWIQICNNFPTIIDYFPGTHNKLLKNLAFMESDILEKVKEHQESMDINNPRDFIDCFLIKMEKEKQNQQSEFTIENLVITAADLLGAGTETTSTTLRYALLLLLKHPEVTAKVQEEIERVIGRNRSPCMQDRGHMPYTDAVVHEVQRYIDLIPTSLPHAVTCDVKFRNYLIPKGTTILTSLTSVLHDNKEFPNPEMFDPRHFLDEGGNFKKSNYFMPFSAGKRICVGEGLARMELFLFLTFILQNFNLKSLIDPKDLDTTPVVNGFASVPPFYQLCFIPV

[6] = HEp-2 cell cytotoxicity, dose response, cytotoxicity control for RSV inhibitor project, HTS (AID 2410); format: functional; details: human respiratory syncytial virus
[7] = Luminescence Cell-Based Dose Response HTS to Identify Activators of Luciferase Translation or Activity in H4 […] Cells. [Related pubchem assays: 1829 (Project Summary), 1814 (Primary HTS)]; format: functional
[8] = tested on: H4; experiment: Luminescence Cell-Based Dose Response HTS to Identify Activators of 5'UTR Stem-Loop Driven Prion Protein mRNA Translation in H4 Neuroglioblastoma Cells. [Related pubchem assays: 1829 (Project Summary), 1814 (Primary HTS)]; format: functional; details: Homo sapiens

Chain of Cytochrome P450 3A4 (P08684 whole entry): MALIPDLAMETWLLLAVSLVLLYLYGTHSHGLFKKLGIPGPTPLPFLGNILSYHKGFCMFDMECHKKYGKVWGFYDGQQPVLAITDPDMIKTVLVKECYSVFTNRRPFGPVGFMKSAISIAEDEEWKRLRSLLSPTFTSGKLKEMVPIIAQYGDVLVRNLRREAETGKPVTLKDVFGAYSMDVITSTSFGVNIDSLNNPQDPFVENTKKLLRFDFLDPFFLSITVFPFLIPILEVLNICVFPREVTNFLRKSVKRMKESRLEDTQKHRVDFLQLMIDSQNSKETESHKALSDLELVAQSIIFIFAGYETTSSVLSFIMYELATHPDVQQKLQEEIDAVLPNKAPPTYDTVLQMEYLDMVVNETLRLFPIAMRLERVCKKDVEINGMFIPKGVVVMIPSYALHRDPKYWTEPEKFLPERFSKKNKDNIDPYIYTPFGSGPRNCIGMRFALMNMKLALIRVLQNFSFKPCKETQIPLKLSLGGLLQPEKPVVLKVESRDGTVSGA

For CN(Cc1ccco1)c1nc(-c2ccccc2C(F)(F)F)nc2ccccc12, which AC50 [1] is on record?
Its AC50 is 12.6 µM (inconclusive).

What does the source list for COC(=O)Nc1nc(-c2cc(Cl)ccc2Cl)cs1?
EC50 [2]: 0.572 µM (active); EC50 [3]: > 60 µM (not active)

Which EC50 [4] does the source give for C[C@H]1O[C@@H](O[C@H]2CC[C@@]3(C)C(CC[C@]4(C)C3C=C[C@]35OC[C@@]6(CCC(C)(C)C[C@H]63)[C@@H](O)C[C@]54C)[C@]2(C)CO)[C@H](O)[C@@H](O[C@@H]2O[C@H](CO)[C@@H](O)[C@H](O)[C@H]2O)[C@H]1O (some centres undefined) here?
The EC50 was 9.4 µM (active).

With C=CC[N+]1(CC#CCOC(c2ccccc2)c2ccccc2)CCOCC1.[Cl-] as the molecule, how does the AC50 [5] read?
The AC50 was “inconclusive”.

With C[C@]12CCC3C(CCC4=C/C(=N/OCC(=O)NC(CCC(N)=O)C(=O)O)CC[C@@]43C)C1CCC2O (some centres undefined) as the molecule, how does the CC50 [6] read?
Its CC50 is 22.6 µM (active).

Which AC50 ([5]; read-out: AC50) does the source give for O=C(Cn1cnc2ccccc21)NC(c1ccccc1)c1ccccc1 here?
The AC50 was 20 µM (inconclusive).

Which AC50 [1] does the source give for CO[C@@H]1/C=C\O[C@]2(C)Oc3c(C)c(O)c4c(O)c(cc(O)c4c3C2=O)NC(=O)/C(C)=C\C=C/[C@H](C)[C@@H](O)[C@H](C)[C@H](O)[C@H](C)[C@H](OC(C)=O)[C@@H]1C here?
Its AC50 is 3.98 µM (inconclusive).

For COc1ccc(F)cc1C(=O)C1CCCN(Cc2cnc(N3CCCC3)s2)C1 (centres undefined), which EC50 [2] is on record?
The EC50 was 0.303 µM (active).

What about the EC50 [3] of the same molecule?
Its EC50 is > 60 µM (not active).

With CCOC(=O)c1sc2nc3n(c(=O)c2c1C)CCC(C)CC3 (centres undefined) as the molecule, how does the CC50 [6] read?
Its CC50 is 38.3 µM (active).

Which CC50 [6] does the source give for CC(C)OC(=O)c1ccc(N2CCN(c3ccc(F)cc3)CC2)nc1 here?
Its CC50 is 14.8 µM (active).

For Cc1ccn2cc(-c3cccc(NC(=O)c4cccs4)c3)nc2c1, which CC50 [6] is on record?
The CC50 was 26.1 µM (active).

Which EC50 [2] does the source give for CCn1nc(C)c(NC(=O)/C=C/c2ccc(OC)c(COc3ccc(Cl)cc3Br)c2)c1C here?
The EC50 was 0.736 µM (active).

And the EC50 [3]?
Its EC50 is > 60 µM (not active).

Which AC50 [5] does the source give for COc1ccc(C2C(C(=O)c3ccc4c(c3)CC(C)O4)=C(O)C(=O)N2CCN2CCOCC2)cc1 (centres undefined) here?
The AC50 was “inconclusive”.

What about the AC50 [1] of the same molecule?
Its AC50 is 28.2 µM (inconclusive).

For CCCCCSc1nncc(O)n1, which AC50 ([5]; read-out: AC50) is on record?
The AC50 was 39.8 µM (inconclusive).

For Cc1ccccc1C(=O)Oc1ccc(Br)cc1C(=S)N1CCCC1, which AC50 [1] is on record?
The AC50 was 8.91 µM (inconclusive).

For C=C1CCC[C@]2(C)C[C@H]3OC(=O)C(CN(C)CC(OC)OC)[C@H]3CC12 (some centres undefined), which CC50 [6] is on record?
The CC50 was 11.4 µM (active).

With COC(=O)c1ccc(NC(S)=Nc2ccccn2)cc1 as the molecule, how does the CC50 [6] read?
Its CC50 is 41.6 µM (active).

Which EC50 [4] does the source give for CCCCCCc1cc2cc(C(=N)NNC(=O)c3ccncc3)c(=O)oc2cc1O here?
The EC50 was 1.11 µM (active).

Which results are given for Cn1c(N)c(C(=O)Nc2ccc3ccccc3c2)sc1=S?
EC50 [7]: 0.117 µM (active); EC50 [8]: 0.279 µM (active)

For Cc1noc(C)c1-c1nccc(N2CCOCC2)n1, which AC50 ([5]; read-out: AC50) is on record?
The AC50 was 10 µM (inconclusive).

What does the source list for N#C/C(=C/C=C/c1ccccc1)C(=O)Nc1ccccc1?
EC50 [2]: 8.82 µM (active); EC50 [3]: > 60 µM (not active)

For CCOC(=O)c1cn(Cc2ccccc2)c(C(=O)OC(C)(C)C)c1O, which EC50 [4] is on record?
The EC50 was 5.22 µM (active).

With COc1ccc(S(=O)(=O)N2CCCCCC2)cc1C(=O)N(C)Cc1ccc(Cl)cc1Cl as the molecule, how does the EC50 [4] read?
Its EC50 is 5 µM (active).

For CCn1c(NCc2cc(Br)ccc2NS(=O)(=O)c2ccc(C)cc2)nc2ccccc21, which EC50 [2] is on record?
Its EC50 is 2.61 µM (active).

What about the EC50 [3] of the same molecule?
Its EC50 is > 60 µM (not active).

Which EC50 [2] does the source give for Cc1nc(C(=O)NC2CCCCC2)sc1C1(C)CC(c2cccnc2)=NO1 (centres undefined) here?
The EC50 was 1.3 µM (active).

And the EC50 [3]?
Its EC50 is > 60 µM (not active).

For Cn1c(=O)c(-c2cc(F)cc(F)c2)nc2cncnc21, which AC50 [1] is on record?
The AC50 was 1.26 µM (inconclusive).

For CCn1nc(NC(=O)COC)c2cc3cccc(C)c3nc21, which CC50 [6] is on record?
Its CC50 is > 50 µM (active).

Which AC50 [1] does the source give for Cc1ccc(-c2csc3ncnc(NCCN4CCOCC4)c23)cc1 here?
Its AC50 is 1.12 µM (inconclusive).

Which EC50 [2] does the source give for CCN1CCc2c(C#N)c(NCc3ccccc3)nc(N(CC)CC)c2C1 here?
The EC50 was 0.426 µM (active).

And the EC50 [3]?
Its EC50 is > 15 µM (not active).

Which EC50 [2] does the source give for O=[N+]([O-])c1ccccc1/C=C/C=N/Nc1ccc(S(=O)(=O)Nc2ccc(Cl)cc2)cc1[N+](=O)[O-] here?
Its EC50 is 1.35 µM (active).

And the EC50 [3]?
The EC50 was > 60 µM (not active).

With c1ccc2c[n+](Cc3ccnc4ccccc34)ccc2c1 as the molecule, how does the AC50 [1] read?
Its AC50 is 1.26 µM (inconclusive).

With CC1(C)CC(=O)C([C@H]2C3=C(CC(C)(C)CC3=O)Oc3ccccc32)C(=O)C1 as the molecule, how does the AC50 [1] read?
The AC50 was 15.8 µM (inconclusive).

For CC1CCN(C(=O)CSc2nc3ccccc3c(=O)n2Cc2ccc3c(c2)OCO3)CC1, which CC50 [6] is on record?
Its CC50 is 33.5 µM (active).

For CC(C)(C)c1ccc(OCC(=O)O)c(Cl)c1, which AC50 [5] is on record?
The AC50 was “inconclusive”.

Which AC50 [5] does the source give for CC(=O)c1cccc(/N=C/C2=C(O)OC3(CCCCC3)OC2=O)c1 here?
The AC50 was “inconclusive”.

What about the AC50 [1] of the same molecule?
The AC50 was 35.5 µM (inconclusive).

With O=[N+]([O-])c1ccc(S(=O)(=O)NCC(c2ccco2)N2CCc3ccccc3C2)cc1 (centres undefined) as the molecule, how does the EC50 [2] read?
Its EC50 is 1.86 µM (active).

And the EC50 [3]?
The EC50 was > 60 µM (not active).

With CN1CCN(CCCNC(=O)c2ccc(CSCc3cccc(Cl)c3)o2)CC1 as the molecule, how does the AC50 [1] read?
The AC50 was 22.4 µM (inconclusive).

Which AC50 ([5]; read-out: AC50) does the source give for CNc1ccnc(-c2ccccc2C)n1 here?
Its AC50 is 31.6 µM (inconclusive).

What about the AC50 [1] of the same molecule?
Its AC50 is 15.8 µM (inconclusive).

With O=C(NCCCN1CCOCC1)c1cc(C(=O)C2CC2)c[nH]1 as the molecule, how does the AC50 ([5]; read-out: AC50) read?
Its AC50 is 3.98 µM (inconclusive).

Which AC50 [1] does the source give for CCOc1nn(-c2ccccc2)c(O)c1/C=N/c1ccc(Cl)cc1 here?
The AC50 was 20 µM (inconclusive).

For CCOc1cc(/C=N/NC(N)=S)cc(Br)c1OCc1ccccc1C, which EC50 [2] is on record?
Its EC50 is 0.114 µM (active).

And the EC50 [3]?
Its EC50 is > 60 µM (inconclusive).

For Brc1ccc(C2=Nn3cnnc3SC2)cc1, which CC50 [6] is on record?
The CC50 was 27.9 µM (active).

With CCc1ccccc1OCC(=O)Nc1ccc2c(c1)OCCO2 as the molecule, how does the CC50 [6] read?
The CC50 was 35.6 µM (active).

With Cc1cc2c(cc1S(=O)(=O)CCC(=O)NC1CCCCC1C)OCC(=O)N2 (centres undefined) as the molecule, how does the EC50 [4] read?
The EC50 was > 53 µM (inactive).

What does the source list for COc1ccc2cc(CN(Cc3cccnc3)Cc3nnnn3Cc3ccccc3)c(O)nc2c1?
EC50 [2]: 0.554 µM (active); EC50 [3]: > 60 µM (not active)

Which AC50 [1] does the source give for CC[C@@H]1OC(=O)[C@H](C)[C@H](O[C@@H]2C[C@](C)(OC)[C@H](O)[C@H](C)O2)[C@H](C)[C@H](O[C@@H]2O[C@@H](C)C[C@@H](N(C)C)[C@@H]2O)[C@](C)(O)C[C@H](C)C(=NOCOCCOC)[C@H](C)[C@H](O)[C@]1(C)O here?
The AC50 was 12.6 µM (inconclusive).

Which EC50 [7] does the source give for O=C(Nc1ccc(Br)cc1)c1c[nH]cn1 here?
Its EC50 is 34.8 µM (active).

What about the EC50 [8] of the same molecule?
Its EC50 is 28.8 µM (active).

For COc1cc(SC)ccc1C(=O)NCCc1c[nH]c2ccccc12, which CC50 [6] is on record?
Its CC50 is 19.9 µM (active).

Which CC50 [6] does the source give for COc1ccccc1NC(=O)N(Cc1ccco1)Cc1cc2cc(C)cc(C)c2nc1O here?
Its CC50 is 3.83 µM (active).

For CC(=O)Nc1ccc(-c2csc(NCCc3ccccc3)n2)cc1, which CC50 [6] is on record?
Its CC50 is 41.3 µM (active).

Which EC50 [2] does the source give for Cc1c(CN2CCC(CO)(Cc3ccccc3)CC2)c2ccccc2n1C here?
Its EC50 is 2.4 µM (active).

And the EC50 [3]?
Its EC50 is 9.85 µM (active).

With O=C(NCCOc1ccccc1F)c1cccc(S(=O)(=O)N2CCN(c3ccccc3)CC2)c1 as the molecule, how does the CC50 [6] read?
The CC50 was 22.2 µM (active).

— ChEMBL document CHEMBL1201862, “PubChem BioAssay data set” (2004)
